Assay results taken from PubChem BioAssay AID463102 (The Scripps Research Institute Molecular Screening Center, 2010).
Calls of active or inactive are those of the source.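 Rule for the calls: active = target enzyme band signal cut by at least 80% with no off-target protein band also blocked; inactive = weaker inhibition or any off-target band blocked.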

What was measured:
[1] = molecular target: Glutathione S-transferase omega-1 (Homo sapiens) (UniProt P78417); assay: GSTO1 inhibition and proteome off-target reactivity, late-stage follow-up, selectivity assay for GSTO1 inhibitor project, cell lysate, MDA-MB-435 proteome, gel ABPP, endogenous enzyme (AID 463102); details: competitive gel ABPP, SE-Rh probe, stronger effect = higher value
[2] = as above; details: competitive gel ABPP, SE-Rh probe, measured here: total off-target bands hit, stronger effect = lower value

Chain of Glutathione S-transferase omega-1 (Homo sapiens) (P78417 whole entry, looked up): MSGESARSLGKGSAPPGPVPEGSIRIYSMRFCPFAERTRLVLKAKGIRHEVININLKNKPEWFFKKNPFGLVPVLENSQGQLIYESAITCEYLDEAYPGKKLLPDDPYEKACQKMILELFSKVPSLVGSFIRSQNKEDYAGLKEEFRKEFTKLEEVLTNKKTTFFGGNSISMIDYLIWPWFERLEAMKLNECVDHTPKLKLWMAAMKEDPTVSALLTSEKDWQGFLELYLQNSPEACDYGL

| SMILES | inhibition ([1]; GSTO1 inhibition, at 1 µM) | inhibition ([1]; at 0.1 µM) | anti-target hits [2] |
| --- | --- | --- | --- |
| Cc1ccc(N(CCCNC(=O)C(F)(F)F)C(=O)CCl)cc1 | 55% | 10% (inactive) | 0 |
| Cc1cccc(CN2CCN(C(=O)CCl)CC2)c1 | 89% | 26% (inactive) | 2 |
| O=C(CCl)N(CCCNC(=O)C(F)(F)F)c1cccc(C(F)(F)F)c1 | 100% | 62% (inactive) | 0 |
| COc1ccc(C(C(=O)NC2CCCCC2)N(C(=O)CCl)c2cccc(Cl)c2)cc1 (stereo not drawn) | 100% | 98% (inactive) | 1 |
| O=C(CCl)N(CCCCNC(=O)C(F)(F)F)c1ccc([N+](=O)[O-])cc1 | 100% | 99% | 0 |
| O=C(NC1CCCCC1)C(c1cccnc1)N(C(=O)CCl)c1ccc(Cl)cc1 (stereo not drawn) | 100% | 79% (inactive) | 2 |
| C#CCCCCNC(=O)C(c1cccnc1)N(C(=O)CCl)c1ccc(F)cc1 (stereo not drawn) | 100% | 48% (inactive) | 2 |
| COc1ccc(N(C(=O)CCl)C(C(=O)NCCc2ccccc2)c2cccs2)cc1Cl (stereo not drawn) | 100% | 85% (inactive) | 4 |
| COc1ccc(N(CCCNC(=O)C(F)(F)F)C(=O)CCl)cc1 | 90% | 27% (inactive) | 0 |
| O=C(NC1CCCCC1)C(c1cccnc1)N(C(=O)CCl)c1ccc(C(F)(F)F)cc1 (stereo not drawn) | 55% | 0% (inactive) | 1 |
| O=C(NC1CCCCC1)C(c1cccnc1)N(C(=O)CCl)c1ccc(F)cc1 (stereo not drawn) | 100% | 71% (inactive) | 2 |
| O=C(CCl)N(CCCNC(=O)C(F)(F)F)c1ccc(F)cc1 | 94% | 25% (inactive) | 0 |
| O=C(NCCCN(C(=O)CCl)c1ccc([N+](=O)[O-])cc1)c1ccccc1 | 93% | 34% (inactive) | 2 |
| CCCCCCCCCCN(C(=O)CCl)c1ccc([N+](=O)[O-])cc1 | 100% | 67% (inactive) | 6 |
| Cc1nn(-c2ccccc2)c(Cl)c1CN(C(=O)CCl)c1ccc(Cl)cc1 | 93% | 28% (inactive) | 3 |
| C#CCCC(=O)NCCCN(C(=O)CCl)c1ccc([N+](=O)[O-])cc1 | 100% | 59% (inactive) | 0 |
| O=C(NC1CCCCC1)C(c1cccnc1)N(C(=O)CCl)c1ccc(Cl)c(Cl)c1 (stereo not drawn) | 100% | 93% (inactive) | 2 |
| O=C(NC1CCCCC1)C(c1cccnc1)N(C(=O)CCl)c1cccc(Cl)c1 (stereo not drawn) | 100% | 100% (inactive) | 2 |

| SMILES | inhibition ([1]; GSTO1 inhibition, at 1 µM) | inhibition ([1]; at 0.1 µM) | anti-target hits [2] |
| --- | --- | --- | --- |
| C#CCNC(=O)C(c1ccc(OC)cc1)N(C(=O)CCl)c1ccc(Cl)cc1 (stereo not drawn) | 100% | 64% (inactive) | 0 |
| O=C(NC1CCCCC1)C(c1cccnc1)N(C(=O)CCl)c1cccc(C(F)(F)F)c1 (stereo not drawn) | 92% | 28% (inactive) | 2 |
| COc1ccc(N(C(=O)CCl)C(C(=O)NC2CCCCC2)c2cccnc2)cc1 (stereo not drawn) | 100% | 45% (inactive) | 1 |
| C#CCCCCNC(=O)C(c1ccc(OC)cc1)N(C(=O)CCl)c1cccc(Cl)c1 (stereo not drawn) | 100% | 83% (inactive) | 1 |
| O=c1[nH]c(CCl)nc2cc(-c3ccc(F)cc3)sc12 | 100% | 77% (inactive) | 4 |
| COc1ccc(C(C(=O)NC2CCCCC2)N(C(=O)CCl)c2ccc(Cl)cc2)cc1 (stereo not drawn) | 100% | 87% | 0 |
| CC(=O)NCCCN(C(=O)CCl)c1ccc([N+](=O)[O-])cc1 | 62% | 16% (inactive) | 0 |
| C#CCN(CCCN(C(=O)CCl)c1ccc([N+](=O)[O-])cc1)C(=O)C(F)(F)F | 100% | 100% | 0 |
| O=C(CCl)N(CCCNC(=O)C(F)(F)F)c1ccccc1 | 73% | 16% (inactive) | 0 |
| COc1ccc(C(CCN(Cc2ccc(OC)c(OC)c2)C(=O)CCl)c2ccccc2)cc1 (stereo not drawn) | 100% | 81% (inactive) | 9 |
| C#CCCCCN(C(=O)CCl)c1ccc([N+](=O)[O-])cc1 | 100% | 51% (inactive) | 0 |
| C#CCNC(=O)C(c1ccc(OC)cc1)N(C(=O)CCl)c1cccc(Cl)c1 (stereo not drawn) | 100% | 69% (inactive) | 1 |
| Cc1ccc2c(c1)c1c3n2CCN(C(=O)CCl)C3CCC1 (stereo not drawn) | 93% | 38% (inactive) | 6 |
| O=C(CCl)N(CCCNC(=O)C(F)(F)F)c1ccc(Cl)cc1 | 100% | 85% | 0 |
| O=C(CCl)N(CCCCCNC(=O)C(F)(F)F)c1ccc([N+](=O)[O-])cc1 | 100% | 90% (inactive) | 1 |
| O=S(=O)(c1ccc(Cl)cc1)N1CCC2(CC1)CO2 | 88% | 19% (inactive) | 0 |
| O=C(NCCCN(C(=O)CCl)c1ccc([N+](=O)[O-])cc1)c1ccc(F)cc1 | 90% | 29% (inactive) | 2 |
| O=C(CCl)N1CCN(S(=O)(=O)c2ccc3ccccc3c2)CC1 | 100% | 57% (inactive) | 5 |
